Test results published in the NIST ThermoML archive (doi:10.1016/j.jct.2011.01.016).

What was measured:
[1] = xn = mol fraction of the nth substance listed; conditions: 100 kPa, Liquid; for viscosity: Concentric cylinders viscometry; for mass density: Vibrating tube method
[2] = 101.33 kPa, Liquid; for viscosity: Concentric cylinders viscometry; for mass density: Vibrating tube method

CCCCCCCCCC(=O)[O-].CCCCCCCCCCCCCC[P+](CCCCCC)(CCCCCC)CCCCCC [trihexyltetradecylphosphonium decanoate] + O
[1], x2 = 0.872
Conditions | mass density [kg/m3] | viscosity [mPa·s]
298.15 K | 901.2 | 90.95
303.15 K | 897.8 | 70.57
308.15 K | 894.5 | 55.66
313.15 K | 891.1 | 44.65
318.15 K | 887.7 | 36.26
323.15 K | 884.3 | 29.77
328.15 K | 880.9 | 24.65
333.15 K | 877.5 | 20.59
338.15 K | 874 | 17.35
343.15 K | 870.6 | 14.72
348.15 K | 867.1 | 12.57
353.15 K | 863.7 | 10.8
358.15 K | 860.2 | 9.345
363.15 K | 856.8 | 8.114

CCCCCCCCCCCCCC[P+](CCCCCC)(CCCCCC)CCCCCC.CS(=O)(=O)[O-] [trihexyltetradecylphosphonium methanesulfonate]
[2]
Conditions | mass density [kg/m3] | viscosity [mPa·s]
278.15 K | 940.5 | 7526.5
283.15 K | 937.4 | 4689.7
288.15 K | 934.3 | 3040.4
293.15 K | 931.2 | 2022.2
298.15 K | 928.1 | 1379.4
303.15 K | 925.1 | 962.83
308.15 K | 922 | 686.13
313.15 K | 918.9 | 498.53
318.15 K | 915.9 | 369.02
323.15 K | 912.9 | 277.77
328.15 K | 909.9 | 212.37
333.15 K | 907 | 164.79
338.15 K | 904.1 | 129.63
343.15 K | 901.2 | 103.34
348.15 K | 898.3 | 83.37
353.15 K | 895.3 | 68.01
358.15 K | 892.4 | 56.06
363.15 K | 889.4 | 46.65

CCCCCCCCCC(=O)[O-].CCCCCCCCCCCCCC[P+](CCCCCC)(CCCCCC)CCCCCC [trihexyltetradecylphosphonium decanoate]
[2]
Conditions | mass density [kg/m3] | viscosity [mPa·s]
278.15 K | 893.2 | 1915.7
283.15 K | 890 | 1292.9
288.15 K | 886.9 | 902.16
293.15 K | 883.7 | 644.41
298.15 K | 880.6 | 471.51
303.15 K | 877.5 | 352.09
308.15 K | 874.4 | 267.73
313.15 K | 871.3 | 207.27
318.15 K | 868.3 | 163
323.15 K | 865.3 | 130.01
328.15 K | 862.2 | 104.89
333.15 K | 859.2 | 85.75
338.15 K | 856.2 | 70.93
343.15 K | 853.2 | 59.27
348.15 K | 850.2 | 49.99
353.15 K | 847.3 | 42.54
358.15 K | 844.3 | 36.46
363.15 K | 841.3 | 31.47

CCCCCCCCCCCCCC[P+](CCCCCC)(CCCCCC)CCCCCC.N#C[N-]C#N [tetradecyl(trihexyl)phosphonium dicyanamide] + O
[1], x2 = 0.496
Conditions | mass density [kg/m3] | viscosity [mPa·s]
298.15 K | 900.7 | 190.83
303.15 K | 897.6 | 145.77
308.15 K | 894.7 | 113.3
313.15 K | 891.7 | 89.4
318.15 K | 888.7 | 71.54
323.15 K | 885.7 | 57.96
328.15 K | 882.7 | 47.54
333.15 K | 879.8 | 39.43
338.15 K | 876.8 | 33.03
343.15 K | 873.8 | 27.94
348.15 K | 870.9 | 23.84
353.15 K | 867.9 | 20.52
358.15 K | 865 | 17.78
363.15 K | 862 | 15.51

CCCCCCCCCCCCCC[P+](CCCCCC)(CCCCCC)CCCCCC.N#C[N-]C#N [tetradecyl(trihexyl)phosphonium dicyanamide]
[2]
Conditions | mass density [kg/m3] | viscosity [mPa·s]
278.15 K | 910.8 | 1646.8
283.15 K | 907.8 | 1144.9
288.15 K | 904.9 | 816.36
293.15 K | 901.9 | 592.93
298.15 K | 899 | 438.57
303.15 K | 896.1 | 329.68
308.15 K | 893.3 | 251.71
313.15 K | 890.4 | 195
318.15 K | 887.6 | 153.15
323.15 K | 884.8 | 121.78
328.15 K | 882 | 97.96
333.15 K | 879.2 | 79.73
338.15 K | 876.4 | 65.56
343.15 K | 873.7 | 54.43
348.15 K | 870.9 | 45.6
353.15 K | 868.1 | 38.53
358.15 K | 865.3 | 32.85
363.15 K | 862.6 | 28.2

CC(CC(C)(C)C)CP(=O)([O-])CC(C)CC(C)(C)C.CCCCCCCCCCCCCC[P+](CCCCCC)(CCCCCC)CCCCCC
[2]
Conditions | mass density [kg/m3] | viscosity [mPa·s]
278.15 K | 897.3 | 5574.5
283.15 K | 894.3 | 3805.5
288.15 K | 891.3 | 2675.3
293.15 K | 888.3 | 1918.2
298.15 K | 885.3 | 1401.7
303.15 K | 882.3 | 1041.5
308.15 K | 879.3 | 785.77
313.15 K | 876.3 | 601.35
318.15 K | 873.4 | 466.24
323.15 K | 870.4 | 365.83
328.15 K | 867.5 | 290.28
333.15 K | 864.6 | 232.76
338.15 K | 861.7 | 188.43
343.15 K | 858.9 | 153.95
348.15 K | 856 | 126.77
353.15 K | 853.2 | 105.22
358.15 K | 850.3 | 87.92
363.15 K | 847.5 | 73.91

CCCCCCCCCCCCCC[P+](CCCCCC)(CCCCCC)CCCCCC.[Br-] [tetradecyltrihexylphosphonium bromide]
[2]
Conditions | mass density [kg/m3] | viscosity [mPa·s]
278.15 K | 967.5 | 16955
283.15 K | 964.4 | 10457
288.15 K | 961.3 | 6688.3
293.15 K | 958.2 | 4421.3
298.15 K | 955.2 | 2988.4
303.15 K | 952.1 | 2065.2
308.15 K | 949 | 1456.3
313.15 K | 946 | 1046.7
318.15 K | 942.9 | 764.04
323.15 K | 939.8 | 568.06
328.15 K | 936.7 | 428.98
333.15 K | 933.7 | 328.56
338.15 K | 930.7 | 255.03
343.15 K | 927.6 | 200.46
348.15 K | 924.6 | 159.44
353.15 K | 921.7 | 128.21
358.15 K | 918.7 | 104.15
363.15 K | 915.7 | 85.44

CCCCCCCCCCCCCC[P+](CCCCCC)(CCCCCC)CCCCCC.O=S(=O)([N-]S(=O)(=O)C(F)(F)F)C(F)(F)F
[2]
Conditions | mass density [kg/m3] | viscosity [mPa·s]
278.15 K | 1081.1 | 1246.2
283.15 K | 1077.4 | 871.17
288.15 K | 1073.6 | 622.45
293.15 K | 1069.8 | 453.64
298.15 K | 1066.1 | 336.74
303.15 K | 1062.4 | 254.24
308.15 K | 1058.8 | 195.04
313.15 K | 1055.2 | 151.85
318.15 K | 1051.6 | 119.85
323.15 K | 1048 | 95.81
328.15 K | 1044.4 | 77.55
333.15 K | 1040.9 | 63.47
338.15 K | 1037.3 | 52.49
343.15 K | 1033.7 | 43.84
348.15 K | 1030.2 | 36.95
353.15 K | 1026.6 | 31.41
358.15 K | 1023.1 | 26.91

CCCCCCCCCCCCCC[P+](CCCCCC)(CCCCCC)CCCCCC.[Cl-] [trihexyl(tetradecyl)phosphonium chloride]
[2]
Conditions | mass density [kg/m3] | viscosity [mPa·s]
278.15 K | 901.6 | 15339
283.15 K | 898.6 | 9447.7
288.15 K | 895.7 | 6088.5
293.15 K | 892.8 | 4030.4
298.15 K | 889.9 | 2729.1
303.15 K | 887 | 1890.3
308.15 K | 884 | 1336.4
313.15 K | 881.1 | 962.5
318.15 K | 878.2 | 705.75
323.15 K | 875.3 | 525.98
328.15 K | 872.3 | 398.19
333.15 K | 869.5 | 305.73
338.15 K | 866.6 | 237.78
343.15 K | 863.7 | 187.39
348.15 K | 860.8 | 149.21
353.15 K | 858 | 120.11
358.15 K | 855.1 | 97.66
363.15 K | 852.3 | 80.17
